Data reported in patent US10323021B2, “Triazoles as NR2B receptor inhibitors” (Janssen Pharmaceuticals, Inc., priority 2014, dated 2019).

Assays:
[1] = tested on: mice (forced swim test, model of depression); experiment: Forced swim test in mice; assay type: in vivo, mouse; conditions: p.o., 30 minutes before the test, male NMRI mice
Description: The compounds of the invention show significant antidepressive effects in the forced swim test in mice, an animal model of depression at doses of 100 mg/kg or below.
The method, which detects antidepressant activity, follows that described by Porsolt et al (Arch. Int. Pharmacodyn., 229, 327-336, 1977), which is incorporated by reference herein in its entirety.
Mice forced to swim in a situation from which they cannot escape rapidly become immobile. Antidepressants decrease the duration of immobility.
Male NMRI mice (Janvier, France), weighing 20-30 g, were individually placed in a cylinder (height=24 cm; diameter=13 cm) containing 10 cm water (22° C.) from which they cannot escape.
The mice were placed in the water for 6 minutes and the duration of immobility during the last 4 minutes was measured. The latency to the first bout of immobility was also recorded starting from the beginning of the test. 10 mice were studied per group. The test substance was administered p.o. 30 minutes before the test and compared with vehicle control group. The test was performed blind.

[2] = target: T1, rat NR1/NR2B receptor (Rattus norvegicus (Rat), UniProt P35439+Q00960); experiment: RRNR2BB: inhibition of specific [3H]-Ifenprodil binding to the rat NR1/NR2B receptor; conditions: rat brain membranes, Hill-plot 2-parameter model
Description: After thawing on the day of the assay, a 5 ml membrane aliquote was centrifuged at 48000 g for 30 min at 4° C. […] This step was repeated twice. The final pellet was homogenized in 5 ml of 5 mM Tris/1 mM EDTA buffer at 4° C. with an Ultraturrax and used for the Ifenprodil-binding assay.
Nonspecific binding was estimated in the presence of 10 M CP101.606. The samples were incubated for 60 min. at 4° C.
Binding was terminated by filtration of the incubated membrane preparations using Filtermat B (Pharmacia, Uppsala Sweden) and a Micro Cell Harvester (Skatron, Lier, Norway). The Filtermat B had been presoaked with 1% polyethylenimine and carefully washed with 50 mM Tris/HCl-buffer pH=7.7 after the filtration to separate free and bound radioactivity.
For pipetting of the incubation mixture the robot Biomek2000 (Fa. Beckman) was used.
The specific binding in this assay was about 80%.

[3] = target: T1, rat NR1/NR2B receptor; experiment: NR2B binding assay: inhibition of specific [3H]-Ifenprodil binding to the rat NR1/NR2B receptor; conditions: rat brain membranes, [3H]-Ifenprodil, Hill-plot 2-parameter model
Description: Inhibition of Specific Binding to the Rat NR1/NR2B Receptor
Male Wistar rats (180 to 200 g) were killed by suffocation in a CO2 chamber for two minutes. Whole brains without cerebellum were removed and dissected on ice, placed into closed vials and stored at −70° C.
Membrane fractions were prepared and tested using standard techniques. At the time of the assay, 1 g of the brains was placed into 25 ml of 50 mM Tris/10 mM EDTA buffer, pH 7.1, (25 vol. per g of original tissue) and homogenized for 30 sec at 20000 rpm with an Ultraturrax T25 (Jahnke & Kunkel, IKA-Labortechnik, Staufen, Germany). The homogenate was centrifuged at 4° C. for 10 min at 48000 g (OPTIMA L-70, Beckman, Palo Alto, Calif. 94304, USA).
The supernatant was discarded and the pellet was homogenized on ice for 30 sec at 20000 rpm with an Ultraturrax and again centrifuged at 48000 g for 30 minutes at 4° C. The resulted pellet was resuspended in 25 ml of 50 mM Tris/10 mM EDTA buffer, homogenized for 30 sec with an Ultraturrax, aliquoted, frozen at −70° C. and stored until use.
After thawing on the day of the assay, a 5 ml membrane aliquot was centrifuged at 48000 g for 30 min at 4° C. The pellet was resuspended in 5 ml of 5 mM Tris/1 mM EDTA buffer, pH 7.4, homogenized for 30 sec at 20000 rpm with an Ultraturrax and centrifuged at 48000 g for 30 min at 4° C. This was repeated twice. The final pellet was homogenized in 5 ml of 5 mM Tris/1 mM EDTA buffer at 4° C. with an Ultraturrax and used for the Ifenprodil-binding assay as described in the following.
Nonspecific binding was estimated in the presence of […] CP101.606. The samples were incubated for 60 min. at 4° C.
The incubation was terminated by filtration of the membrane preparations using Filtermat B (Pharmacia, Uppsala Sweden) and a Micro Cell Harvester (Skatron, Lier, Norway). The Filtermat B had been presoaked with 1% polyethylene imine and carefully washed with 50 mM Tris/HCl-buffer pH 7.7 after the filtration to separate free and bound radioactivity.
The optimal amount of membrane preparation in the assay had been determined and optimized for each membrane preparation separately before the test.
For pipetting of the incubation mixture we routinely used the robot Biomek2000 (Fa. Beckman).
For determination of IC50 values the Hill-plot, 2-parameter-model was used.

[4] = target: hERG receptor (Homo sapiens (Human), UniProt Q12809); experiment: HERGBD: inhibition of specific [3H]-Dofetilide binding to the hERG receptor; conditions: HEK hERG membranes, Hill-plot 2-parameter model
hERG receptor, sequence (Q12809 whole entry): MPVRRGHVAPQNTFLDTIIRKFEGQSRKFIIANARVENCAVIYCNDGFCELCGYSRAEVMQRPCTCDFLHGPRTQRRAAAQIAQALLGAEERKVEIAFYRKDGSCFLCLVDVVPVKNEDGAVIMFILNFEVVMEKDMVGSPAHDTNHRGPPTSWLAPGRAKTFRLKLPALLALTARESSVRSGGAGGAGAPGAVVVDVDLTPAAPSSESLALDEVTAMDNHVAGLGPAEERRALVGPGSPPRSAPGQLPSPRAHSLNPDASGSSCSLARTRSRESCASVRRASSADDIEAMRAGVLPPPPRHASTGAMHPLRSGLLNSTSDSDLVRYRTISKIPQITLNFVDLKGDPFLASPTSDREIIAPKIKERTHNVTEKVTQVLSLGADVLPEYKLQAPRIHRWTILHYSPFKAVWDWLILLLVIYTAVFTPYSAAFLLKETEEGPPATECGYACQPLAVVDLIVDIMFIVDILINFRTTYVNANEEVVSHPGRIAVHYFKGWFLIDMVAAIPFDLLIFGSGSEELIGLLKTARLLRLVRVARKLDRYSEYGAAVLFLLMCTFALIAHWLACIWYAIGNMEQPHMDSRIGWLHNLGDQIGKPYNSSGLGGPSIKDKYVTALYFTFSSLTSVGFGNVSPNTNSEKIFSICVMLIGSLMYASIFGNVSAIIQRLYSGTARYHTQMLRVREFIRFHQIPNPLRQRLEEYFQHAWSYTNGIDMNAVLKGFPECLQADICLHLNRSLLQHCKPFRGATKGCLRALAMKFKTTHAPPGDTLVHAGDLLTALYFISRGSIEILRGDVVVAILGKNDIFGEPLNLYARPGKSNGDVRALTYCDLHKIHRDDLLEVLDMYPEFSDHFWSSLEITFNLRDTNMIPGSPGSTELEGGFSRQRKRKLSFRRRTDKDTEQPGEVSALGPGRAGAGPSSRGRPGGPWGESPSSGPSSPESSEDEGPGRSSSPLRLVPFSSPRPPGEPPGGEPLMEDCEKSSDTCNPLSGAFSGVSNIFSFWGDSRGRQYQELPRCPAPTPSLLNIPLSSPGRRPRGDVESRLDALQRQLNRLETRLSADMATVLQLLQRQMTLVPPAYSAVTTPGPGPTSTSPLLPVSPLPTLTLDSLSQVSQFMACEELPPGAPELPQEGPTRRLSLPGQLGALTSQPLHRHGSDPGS
Description: Inhibition of Specific Binding to the hERG—Receptor (HERGBD)
A HEK cell line with stable transfected human ERG receptor was used for the assay. The cells were grown adherently and maintained in DULBECCOS' MEM medium with 10% FBS, 1% non-essential amino acids, 1% Penicillin/Streptomycin and 400 μg/ml G418 (Calbiochem).
For binding assays and membrane preparations the cell culture medium was removed, cells were washed with PBS. Crude membranes for radioligand binding experiments were prepared by scraping the cells off the dishes in ice cold 20 mM HEPES/0.1 mM KCl/pH 7.2. […]
Binding was terminated by filtration of the incubated membrane preparations using Filtermat B (Pharmacia, Uppsala Sweden) and a Micro Cell Harvester (Skatron, Lier, Norway). The Filtermat B had been presoaked with 1% polyethylenimine and carefully washed with 0.05 M Tris/HCl-buffer pH=7.7 after the filtration to separate free and bound radioactivity. The filters were counted in a scintillation counter (Betaplate 1205, Berthold, Wildbad, Germany) in order to determine the specific binding of [^3H]-Dofetilide.
The optimal amount of membrane preparation in the assay was determined and optimized for each membrane preparation separately in front of using the membranes in compound testing.
The IC50 values in the table below were determined using the Hill-plot, 2-parameter-model.

T1 sequence (Q00960 27-1482, other chains not shown): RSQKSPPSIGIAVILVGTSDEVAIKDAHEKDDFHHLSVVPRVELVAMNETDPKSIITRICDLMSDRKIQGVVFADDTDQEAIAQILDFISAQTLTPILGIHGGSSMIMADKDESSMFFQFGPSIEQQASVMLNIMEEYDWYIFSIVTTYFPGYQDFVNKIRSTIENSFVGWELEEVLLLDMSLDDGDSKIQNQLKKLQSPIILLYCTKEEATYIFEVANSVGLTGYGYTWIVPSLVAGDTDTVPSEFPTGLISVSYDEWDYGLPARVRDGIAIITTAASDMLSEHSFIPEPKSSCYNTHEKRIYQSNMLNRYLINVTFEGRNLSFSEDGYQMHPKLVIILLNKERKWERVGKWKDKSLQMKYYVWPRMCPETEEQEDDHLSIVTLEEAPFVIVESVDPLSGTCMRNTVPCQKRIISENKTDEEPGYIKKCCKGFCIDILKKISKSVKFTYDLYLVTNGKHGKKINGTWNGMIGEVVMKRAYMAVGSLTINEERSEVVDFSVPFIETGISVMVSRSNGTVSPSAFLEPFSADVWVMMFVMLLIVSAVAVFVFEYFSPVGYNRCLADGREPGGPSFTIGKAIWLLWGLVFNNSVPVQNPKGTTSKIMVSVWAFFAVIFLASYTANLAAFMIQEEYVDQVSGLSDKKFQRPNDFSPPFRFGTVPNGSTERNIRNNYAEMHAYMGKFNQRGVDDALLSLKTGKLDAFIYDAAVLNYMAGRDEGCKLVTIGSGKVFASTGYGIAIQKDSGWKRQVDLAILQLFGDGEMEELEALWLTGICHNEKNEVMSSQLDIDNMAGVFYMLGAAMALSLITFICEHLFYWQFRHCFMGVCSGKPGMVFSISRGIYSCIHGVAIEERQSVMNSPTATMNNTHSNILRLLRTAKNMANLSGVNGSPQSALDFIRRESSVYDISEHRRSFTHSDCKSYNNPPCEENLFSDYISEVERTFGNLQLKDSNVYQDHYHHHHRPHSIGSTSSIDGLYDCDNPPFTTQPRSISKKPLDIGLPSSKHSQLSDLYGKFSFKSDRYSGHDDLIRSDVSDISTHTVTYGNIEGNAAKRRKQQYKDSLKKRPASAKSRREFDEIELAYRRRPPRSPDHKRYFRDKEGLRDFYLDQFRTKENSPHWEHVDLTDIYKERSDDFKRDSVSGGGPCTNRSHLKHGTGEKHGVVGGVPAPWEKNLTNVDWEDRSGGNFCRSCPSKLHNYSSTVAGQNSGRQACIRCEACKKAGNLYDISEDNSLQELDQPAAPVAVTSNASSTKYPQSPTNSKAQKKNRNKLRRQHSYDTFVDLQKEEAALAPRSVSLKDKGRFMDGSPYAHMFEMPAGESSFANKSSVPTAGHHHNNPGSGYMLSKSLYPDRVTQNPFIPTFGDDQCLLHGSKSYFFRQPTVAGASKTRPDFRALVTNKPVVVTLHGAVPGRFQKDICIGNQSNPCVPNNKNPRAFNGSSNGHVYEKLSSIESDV

| SMILES | Minimum effective dose [1] [mg/kg] | IC50 [2] [nM] | IC50 [3] [nM] | IC50 [4] [µM] |
| --- | --- | --- | --- | --- |
| OCCc1nccn1Cc1cn(-c2ccc(F)c(OC(F)F)c2)nn1 [Example 101, 1-(3-Difluoromethoxy-4-fluoro-phenyl)-4-[2-(2-hydroxy-ethyl)-imidazol-1-ylmethyl]-1H-[1,2,3]triazole] | >30 | – | – | – |
| Fc1ccc(-n2cc(Cn3ccnc3C3CC3)nn2)cc1C(F)F [Example 82, 4-(2-Cyclopropyl-imidazol-1-ylmethyl)-1-(3-difluoromethyl-4-fluoro-phenyl)-1H-[1,2,3]triazole] | 60 | – | – | – |
| FCCc1nccn1Cc1cn(-c2cc(F)cc(C(F)F)c2)nn1 [Example 104, 1-(3-Difluoromethyl-5-fluoro-phenyl)-4-[2-(2-fluoro-ethyl)-imidazol-1-ylmethyl]-1H-[1,2,3]triazole] | – | 186 | 186 | 30.6 |
| OCCc1nccn1Cc1cn(-c2ccc(S(F)(F)(F)(F)F)cc2)nn1 [Example 118, 2-(1-((1-(4-(pentafluoro-l6-sulfanyl)phenyl)-1H-1,2,3-triazol-4-yl)methyl)-1H-imidazol-2-yl)ethan-1-ol] | – | 263 | 263 | – |
